Measurements published in patent US6268397A, “Use of (α-aminomethyl-3,4-dichlorobenzyl) thioacetamide derivatives for inhibiting dopamine reuptake and new compounds for this use” (Laboratoire. L. Lafon, priority 1995, dated 2001).
Counter-ions that a name gives are not always drawn. Like-named read-outs stand apart in the source and are kept apart here.

Assays:
[1] = target: T1, site of dopamine reuptake (Rattus norvegicus, UniProt P23977); assay: Inhibition of binding at the site of dopamine reuptake in vitro in rat striatum ([3H]mazindol); set-up: species or system rat (male, CD Sprague-Dawley); conditions: pH 7.7, mean of three tests
T1 construct: The striata are removed immediately and then stored at -80° C. until used; from tissue; host or cells: rat striatum membranes (male CD Sprague-Dawley)
T1 sequence (P23977 whole entry): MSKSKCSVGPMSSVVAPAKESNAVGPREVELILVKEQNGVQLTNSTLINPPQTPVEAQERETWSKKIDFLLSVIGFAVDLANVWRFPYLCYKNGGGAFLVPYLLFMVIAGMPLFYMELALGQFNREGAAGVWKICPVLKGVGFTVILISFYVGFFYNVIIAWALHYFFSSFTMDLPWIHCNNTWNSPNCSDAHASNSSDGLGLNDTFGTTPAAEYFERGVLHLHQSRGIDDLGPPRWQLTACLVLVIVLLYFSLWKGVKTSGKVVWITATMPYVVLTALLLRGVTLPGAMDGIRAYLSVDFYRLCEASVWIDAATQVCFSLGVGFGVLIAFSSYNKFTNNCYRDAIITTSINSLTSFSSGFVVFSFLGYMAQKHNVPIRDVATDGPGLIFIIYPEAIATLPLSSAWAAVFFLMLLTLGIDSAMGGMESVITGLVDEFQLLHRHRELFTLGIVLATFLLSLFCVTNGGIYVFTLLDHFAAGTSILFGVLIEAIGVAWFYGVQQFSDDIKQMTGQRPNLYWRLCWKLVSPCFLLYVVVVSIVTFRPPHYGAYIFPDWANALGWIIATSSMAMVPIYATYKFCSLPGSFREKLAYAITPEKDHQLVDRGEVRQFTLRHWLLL
Protocol: Inhibition Of Binding At the Site of Dopamine Reuptake In Vitro In Rat Striatum
Rats, (male, CD Sprague-Dawley, 200-250 g) are sacrificed by decapitation. The striata are removed immediately and then stored at -80° C. until used. On the day of the manipulation, the striata are thawed, coated with buffer and then brought into suspension. This suspension is then poured into the centrifuge tubes, made up to 10 ml with pH 7.7 buffer (50 mM Tris (HCl), 120 mM NaCl, 5 mM KCl) and thereafter centrifuged at 20,000 rpm for 15 minutes. The pellet is resuspended in 10 ml of buffer and is then subjected to a second centrifugation (20,000 rpm for 15 minutes). The above procedure is repeated, so that the homogenate undergoes a third centrifugation identical to the previous two. The pellet thereby obtained is suspended in a few ml of buffer and then homogenized. The membrane suspension is then diluted in a requisite volume. Increasing concentrations of the test compounds dissolved in the buffer are distributed. Aliquots of the membrane suspension are then added. The radioactive ligand ([^3 H]mazindol), used as a label of the type of site studied, is then distributed manually in the tubes, which are thereafter incubated (final volume 1 ml).
The reaction is stopped by filtration through a Harvester system (Whatman GF/B filter strip). The filter strip is then washed three times with 5 ml of buffer before being placed in an automatic cutting system.
The cut filters fall into counting vials, and 4 ml of scintillation fluid are distributed automatically by the system. Each sample is subjected to counting of the radioactivity using a liquid scintillation counter.
Three series of tests (test 1, test 2 and test 3) are carried out with each compound for determination of the IC50, each determination being carried out on two different samples.
The specific binding is defined as the difference between the total binding and the non-specific binding (displace by an excess of non-radioactive ligand). The values obtained in counts per minute (cpm) are then converted into disintegrations per minute (dpm) in accordance with the efficiency of the counter.
The IC50 is defined as the concentration of the substance under study needed to displace 50% of the specifically bound radioactive label.
The experimental data emanating from the liquid scintillation counter (Kontron) are stored on diskette, managed by a program (Convert) and then analysed by means of Ligand* software, which calculates the 50% inhibitory concentration (IC50) and the inhibition constant Ki [formula]
where [L] represents the concentration of the radioactive ligand and Kd the dissociation constant of this same ligand. (The values of the IC50 and of Ki are inversely proportional to the affinity of the product under study for the binding site.

[2] = system: mice; assay: Test of "behavioural despair" in mice; type: in vivo, mice (male, CD1)
Text: Effects on the Test of "Behavioural Despair"in Mice
Half an hour after receiving CRL 41 789 or CRL 41 790 intraperitoneally in distilled water, groups of 6 or 12 mice (male, CD1, Charles River, 18-22 g) are placed individually in a high vessel made of transparent glass, filled with water to a height of 6 cm. The total period of immobility between the beginning of the 3rd minute and the end of the 6th minute following immersion of the animal is noted.

[3] = system: rats; assay: Induction of stereotyped movements in rats; type: in vivo, rat (male, CD, Sprague-Dawley); conditions: i.p.
Protocol: Induction of Stereotyped Movements in Rats
Groups of 6 rats (male, CD, Sprague-Dawley, Charles River, 160-200 g) receive CRL 41 789 or CRL 41 790 intraperitoneally in distilled water (5 ml/kg), and are immediately place in Flexiglas cages (20×10×10cm). The stereotyped movements are scored from 0 to 3 every 10 minutes until they have disappeared.

[4] = system: anaesthetized rat striatum; assay: Extracellular levels of neuro-mediators and metabolites in anaesthetized rat striatum (intracerebral microdialysis); type: in vivo, rat (male, Sprague-Dawley CD); conditions: doses of 16, 32 or 64 mg/kg i.p.; for 3-methoxytyramine (3MT) concentration in the dialysate / dopamine concentration in the dialysate: hydrochloride
Protocol: Effect On The Extracellular Levels Of Neuro-Mediators And Metabolites In Anaesthetized Rat Striatum (Intracerebral Microdialysis)
This determination is obtained by high performance liquid chromatography coupled with and electro-chemical detection.
HPLC: Spherisorb cartridge, ODS-2 (5 μm), L=[…], =4 mm, Merck. Mobile phase: 0.1 M potassium phosphate, 0.1 M citric acid, octane-sulphonic acid 50 mg/l, 0.1 mM EDTA, 4% methanol, ph 4.80 , pump output 0.9 ml/min
electrochemical detection: BAS detector, LC-4C, +750 mV
analyser: Millenium, Waters
Rats (male, Sprague-Dawley CD, Charles River, 280-300 g) anaesthetized with chloral hydrate (400 mg/kg, i.p.) are placed in a stereotactic apparatus. The micro-dialysis probe (CMA/11 L=3 mm, =0.24 mm, Carnegie) is implanted according to the coordinates of the Paxinos and Watson atlas in the anterior portion of the left striatum: I=10, L=2.4, H=-6.1.
Ringer's fluid (CaCl2 =2.4 mM, KCl=4 mM, NaCl=147 mM) is perfused at 2 μl/min into the probe. The dialysates collected every 20 minutes are cooled (to approximately 6° C.) and then analysed.
After one hour of collection, groups of 6 rats receive intraperitoneally in a volume of 5 ml/kg:
either an injection of isotonic sodium chloride solution,
or the test compound dissolved in distilled water at doses of 16, 32 or 64 mg/kg.
In the dialysate, the dopamine (DA), 3,4-dihydroxyphenylacetic acid (DOPAC), homovanillic acid (HVA) and 3-methoxytyramine (3MT) concentrations are measured by electrochemical detection and quantified with respect to a standard series, and are corrected in accordance with the efficiency of the probe determined in vitro before each test.
Only tests in which the probes display an efficiency of more than 5% are taken into account.

[5] = system: mice; assay: Toxicity in mice via the i.p. route (LD0, LD100); type: in vivo
Text: The LD0 and LD100 values in mice via the i.p. route are also given in this table.

[6] = Solubility of the product; type: physicochemical
[7] = system: mice; assay: Locomotor activity of mice; type: in vivo, mice (male, NMRI); conditions: recorded over 30 minutes
Protocol: Effects on the Locomotor Activity of Mice
Half an hour after receiving CRL 41 789 or CRL 41 790 intraperitoneally in distilled water, groups of 6 to 24 mice (male, NMRI, C.R.E. Janvier, 18-22 g) are placed individually in crossed-beam activity cages, where their locomotor activity (number of rays crossed) is recorded over 30 minutes.

[8] = rat striatum, read-out: Inhibition of binding at the site of dopamine reuptake IC50
[9] = rat striatum, read-out: Inhibition of binding at the site of dopamine reuptake Ki
[10] = Inhibition of binding at the site of dopamine reuptake IC50, rat striatum
[11] = Inhibition of binding at the site of dopamine reuptake Ki, rat striatum

| Structure (SMILES) | IC50 [1, 8] | Ki [1, 9] | 3-methoxytyramine (3MT) concentration in the dialysate [4] | dopamine concentration in the dialysate [4] | LD0 ([5]; hydrochloride) | LD100 ([5]; hydrochloride) | solubility in ethanol [6] | solubility in ether [6] | solubility in ethyl acetate [6] | solubility in methanol [6] | solubility in water [6] | IC50 [1, 10] | Ki [1, 11] | LD0 [5] | LD100 [5] | other results |
| --- | --- | --- | --- | --- | --- | --- | --- | --- | --- | --- | --- | --- | --- | --- | --- | --- |
| CC(C)(C)NCC(SCC(N)=O)c1ccc(Cl)c(Cl)c1 (single isomer, unassigned) [CRL 41 790, d(+)-[α-(tert-butylaminomethyl)-3,4-dichlorobenzyl]thioacetamide hydrochloride] | 1100 nM | 620 nM | does not cause any modification | does not cause any modification | 128 mg/kg | 512 mg/kg | soluble | insoluble | insoluble | soluble | soluble | – | – | – | – | period of immobility ([2]; i.p., even at the high dose of 64 mg/kg): does not give rise to any decrease in the period of immobility; stereotyped movements ([3]; even at the high dose of 128 mg/kg): does not cause the appearance of any stereotyped movement; locomotor activity ([7]; i.p., even at 64 mg/kg): does not give rise to any increase in the locomotor activity |
| CC(C)(C)NCC(SCC(N)=O)c1ccc(Cl)c(Cl)c1 (racemic) [CRL 41 414, [α-(tert-butylaminomethyl)-3,4-dichlorobenzyl]thioacetamide] | – | – | – | – | – | – | – | – | – | – | – | 31 nM | 63 nM | 128 mg/kg | 256 mg/kg | – |
| CC(C)(C)NCC(SCC(N)=O)c1ccc(Cl)c(Cl)c1 (single isomer, unassigned) [CRL 41 789, 1(-)-[α-(tert-butylaminomethyl)-3,4-dichlorobenzyl]thioacetamide hydrochloride] | 44 nM | 24 nM | significant increase | significant increase | 64 mg/kg | 256 mg/kg | soluble | insoluble | insoluble | – | soluble | – | – | – | – | period of immobility ([2]; i.p., 0.5, 2, 8 and 32 mg/kg): a decrease in the period of immobility is observed, the decrease rising with the dose; period of immobility, significance of the effect ([2]; i.p., 8 and 32 mg/kg): marked and statistically significant; stereotyped movements ([3]; 16 and 32 mg/kg): appearance of intense and lasting stereotyped movements; DOPAC concentration in the dialysate [4]: without modification; HVA concentration in the dialysate [4]: without modification; locomotor activity ([7]; i.p., 2, 8 and 32 mg/kg): marked and statistically significant increase in the locomotor activity of the mice is observed, the increase rising with the dose |
| CCC(C)(C)NCC(SCC(N)=O)c1ccc(Cl)c(Cl)c1 (stereo not drawn) [CRL 42 059, [α-(tert-amylaminomethyl)-3,4-dichlorobenzyl]thioacetamide hydrochloride] | – | – | – | – | – | – | – | insoluble | insoluble | – | soluble | 74 nM | 46 nM | 30 mg/kg | 256 mg/kg | solubility in alcohols ([6]; alcohols): soluble |
| NC(=O)CSC(CNC12CC3CC(CC(C3)C1)C2)c1ccc(Cl)c(Cl)c1 (stereo not drawn) [CRL 42 060, [α-(1-adamantylaminomethyl)-3,4-dichlorobenzyl]thioacetamide hemifumarate] | – | – | – | – | – | – | – | insoluble | insoluble | soluble | insoluble | 40 nM | 44 nM | 128 mg/kg | 1024 mg/kg | solubility in DMSO ([6]; DMSO): soluble |
